What was measured:
[1] = biological target: T1, Receptor-type tyrosine-protein kinase FLT3 (Homo sapiens, UniProt P36888); experiment: Selectivity interaction (Kinase panel (Invitrogen, enzymatic assay)) EUB0000162b FLT3
T1 sequence (P36888 whole entry): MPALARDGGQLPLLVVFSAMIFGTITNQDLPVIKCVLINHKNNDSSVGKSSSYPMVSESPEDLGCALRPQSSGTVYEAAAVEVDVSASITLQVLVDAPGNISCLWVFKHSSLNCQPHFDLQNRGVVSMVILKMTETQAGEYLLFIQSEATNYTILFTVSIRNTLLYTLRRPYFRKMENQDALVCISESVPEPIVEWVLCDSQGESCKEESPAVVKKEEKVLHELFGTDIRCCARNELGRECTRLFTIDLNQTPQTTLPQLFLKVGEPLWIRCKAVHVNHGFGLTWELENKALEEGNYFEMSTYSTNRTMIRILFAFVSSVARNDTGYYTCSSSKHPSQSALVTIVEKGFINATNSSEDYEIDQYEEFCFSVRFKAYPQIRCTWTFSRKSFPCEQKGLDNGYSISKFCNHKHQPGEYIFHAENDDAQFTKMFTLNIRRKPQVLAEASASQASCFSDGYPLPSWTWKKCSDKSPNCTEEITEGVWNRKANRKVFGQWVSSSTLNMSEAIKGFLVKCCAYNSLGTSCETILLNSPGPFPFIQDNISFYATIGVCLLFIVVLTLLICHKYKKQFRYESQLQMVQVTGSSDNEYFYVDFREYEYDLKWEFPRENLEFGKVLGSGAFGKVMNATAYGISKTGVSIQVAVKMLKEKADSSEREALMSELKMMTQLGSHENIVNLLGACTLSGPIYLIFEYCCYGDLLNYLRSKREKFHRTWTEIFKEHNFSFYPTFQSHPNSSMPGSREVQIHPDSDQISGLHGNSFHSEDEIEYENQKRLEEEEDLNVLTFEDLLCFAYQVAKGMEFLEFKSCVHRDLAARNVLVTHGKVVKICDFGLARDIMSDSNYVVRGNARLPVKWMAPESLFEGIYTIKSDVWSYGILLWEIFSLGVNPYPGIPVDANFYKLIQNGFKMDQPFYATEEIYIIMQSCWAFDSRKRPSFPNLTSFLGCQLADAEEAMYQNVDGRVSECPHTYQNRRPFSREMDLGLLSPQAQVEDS

[2] = biological target: MAP kinase-interacting serine/threonine-protein kinase 2 (Homo sapiens, UniProt Q9HBH9); experiment: Selectivity interaction (KinomeScan (DiscoverX)) EUB0000092b MKNK2; conditions: at 10 µM
[3] = biological target: T2, MAP/microtubule affinity-regulating kinase 4 (Homo sapiens) (UniProt Q96L34); experiment: Selectivity interaction (KinomeScan (DiscoverX)) EUB0000092b MARK4; conditions: at 10 µM
T2 sequence (whole entry): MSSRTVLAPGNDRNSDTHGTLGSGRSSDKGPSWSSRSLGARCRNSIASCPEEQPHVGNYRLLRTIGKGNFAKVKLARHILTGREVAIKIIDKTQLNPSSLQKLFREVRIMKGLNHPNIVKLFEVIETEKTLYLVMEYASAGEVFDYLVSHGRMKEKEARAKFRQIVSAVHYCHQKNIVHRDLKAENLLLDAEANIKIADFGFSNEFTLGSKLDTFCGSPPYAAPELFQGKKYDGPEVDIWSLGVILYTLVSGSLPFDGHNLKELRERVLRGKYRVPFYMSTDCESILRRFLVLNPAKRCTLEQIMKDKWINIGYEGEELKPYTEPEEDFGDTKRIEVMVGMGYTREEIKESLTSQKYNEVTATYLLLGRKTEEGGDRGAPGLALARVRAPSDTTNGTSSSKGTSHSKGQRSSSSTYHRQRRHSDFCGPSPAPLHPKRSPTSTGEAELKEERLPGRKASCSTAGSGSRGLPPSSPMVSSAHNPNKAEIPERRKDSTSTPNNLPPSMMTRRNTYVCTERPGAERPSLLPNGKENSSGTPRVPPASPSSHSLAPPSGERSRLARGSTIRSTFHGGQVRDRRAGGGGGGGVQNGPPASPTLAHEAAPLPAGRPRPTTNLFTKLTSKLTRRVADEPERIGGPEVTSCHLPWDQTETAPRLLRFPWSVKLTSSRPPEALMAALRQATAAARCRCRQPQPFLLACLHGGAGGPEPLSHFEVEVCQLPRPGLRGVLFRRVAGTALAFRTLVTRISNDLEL

[4] = biological target: T3, Serine/threonine-protein kinase MAK (Homo sapiens) (UniProt P20794); experiment: Selectivity interaction (Ambit KINOMEscan and KiNATiv profiling in Jurkat cells) EUB0000090b MAK; format: cell-based; conditions: at 1 µM
T3 sequence (whole entry): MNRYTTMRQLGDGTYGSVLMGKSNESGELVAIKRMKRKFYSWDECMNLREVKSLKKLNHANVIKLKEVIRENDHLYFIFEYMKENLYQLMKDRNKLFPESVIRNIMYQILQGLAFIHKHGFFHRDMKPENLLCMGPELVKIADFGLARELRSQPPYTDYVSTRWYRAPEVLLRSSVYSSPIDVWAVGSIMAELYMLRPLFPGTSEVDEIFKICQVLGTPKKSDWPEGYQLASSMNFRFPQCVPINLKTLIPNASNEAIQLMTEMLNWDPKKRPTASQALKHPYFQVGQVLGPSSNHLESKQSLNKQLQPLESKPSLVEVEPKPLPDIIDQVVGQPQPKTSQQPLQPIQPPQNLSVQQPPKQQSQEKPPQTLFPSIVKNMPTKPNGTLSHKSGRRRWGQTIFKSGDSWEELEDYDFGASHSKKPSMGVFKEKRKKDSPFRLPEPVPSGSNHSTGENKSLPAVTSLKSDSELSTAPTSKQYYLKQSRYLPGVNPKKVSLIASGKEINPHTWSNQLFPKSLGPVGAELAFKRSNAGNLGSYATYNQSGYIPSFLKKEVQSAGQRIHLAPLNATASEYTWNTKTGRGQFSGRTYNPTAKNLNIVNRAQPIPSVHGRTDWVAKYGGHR

[5] = biological target: T2, MAP/microtubule affinity-regulating kinase 4 (Homo sapiens); experiment: Selectivity interaction (KinomeScan (DiscoverX)) EUB0000655a MARK4; conditions: at 10 µM
[6] = biological target: Calcium/calmodulin-dependent protein kinase type II subunit alpha (Homo sapiens, UniProt Q9UQM7); experiment: Selectivity interaction (KinomeScan (DiscoverX)) EUB0000607a CAMK2A; conditions: at 10 µM
Chain of Calcium/calmodulin-dependent protein kinase type II subunit alpha (Q9UQM7 whole entry): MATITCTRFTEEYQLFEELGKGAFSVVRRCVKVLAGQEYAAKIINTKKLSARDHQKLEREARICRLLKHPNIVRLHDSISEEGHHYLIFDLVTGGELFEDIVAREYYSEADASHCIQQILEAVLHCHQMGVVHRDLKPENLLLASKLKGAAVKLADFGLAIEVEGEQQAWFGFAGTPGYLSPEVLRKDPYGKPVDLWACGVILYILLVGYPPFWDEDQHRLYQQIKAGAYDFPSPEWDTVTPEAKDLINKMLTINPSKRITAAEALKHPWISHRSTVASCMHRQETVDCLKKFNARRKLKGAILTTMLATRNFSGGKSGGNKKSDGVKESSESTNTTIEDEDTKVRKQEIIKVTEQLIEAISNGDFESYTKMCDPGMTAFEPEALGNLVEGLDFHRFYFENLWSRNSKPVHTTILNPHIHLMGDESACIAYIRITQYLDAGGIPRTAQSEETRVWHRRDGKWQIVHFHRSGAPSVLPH

Chain of MAP kinase-interacting serine/threonine-protein kinase 2 (Q9HBH9 whole entry, looked up): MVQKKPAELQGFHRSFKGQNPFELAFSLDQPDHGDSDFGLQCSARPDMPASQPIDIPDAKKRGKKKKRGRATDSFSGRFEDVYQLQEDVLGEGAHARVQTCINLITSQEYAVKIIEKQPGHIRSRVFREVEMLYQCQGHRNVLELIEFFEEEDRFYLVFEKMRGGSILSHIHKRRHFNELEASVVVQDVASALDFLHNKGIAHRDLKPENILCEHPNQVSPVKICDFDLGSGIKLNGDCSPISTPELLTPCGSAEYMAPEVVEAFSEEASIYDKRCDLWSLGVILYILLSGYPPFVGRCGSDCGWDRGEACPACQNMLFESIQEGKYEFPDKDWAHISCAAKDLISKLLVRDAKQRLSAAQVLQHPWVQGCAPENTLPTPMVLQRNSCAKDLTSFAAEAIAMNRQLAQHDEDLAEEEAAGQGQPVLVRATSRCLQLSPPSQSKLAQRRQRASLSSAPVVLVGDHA

With `CN(C)C(=O)Cn1cc(-c2ccc(-c3cncc4ccccc34)cc2)cn1` the IC50 [1] was 1360 nM.
`CCC(=O)N1CCN(c2ccc(-n3c(=O)ccc4cnc5ccc(-c6cnc7ccccc7c6)cc5c43)cc2C(F)(F)F)CC1` showed a % of control [2] of 54% and a % of control [3] of 100%.
With `CN(C)C/C=C/C(=O)Nc1ccc(C(=O)N2CCCC(Nc3ncc(Cl)c(-c4c[nH]c5ccccc45)n3)C2)cc1` (stereo unspecified) the % of control [4] was 63%.
`CN(C)CCOc1ccc(-c2nc(-c3ccncc3)c(-c3ccc4c(c3)CC/C4=N\O)[nH]2)cc1` was tested, and the % of control [5] was 100%.
Molecule `CNC(=O)Nc1ccc(-c2nc(N3CC4CCC(C3)O4)c3cnn(C4CCC5(CC4)OCCO5)c3n2)cc1` has a % of control [6] of 100%.
